From US20040250469A1, “Method for marking hydrocarbons with substituted anthraquinones” (priority 2003, published 2004)

Experiments:
[1] = Absorption maximum and extinction measurement (absorbance, 1 cm path length, 10 mg/L solutions); assay type: physicochemical; conditions: for molar extinction coefficient (ε): at λmax, toluene; for extinction value: 10 mg/L solution, 1 cm path length
Method: All percentages are weight percentages, unless otherwise indicated. Concentrations in parts per million (“ppm”) are calculated on a weight/volume basis. When a solvent is not specified for measurement of an absorption maximum, a hydrocarbon solvent is preferred. Extinction values are determined by measuring absorption in absorbance units (“AU”) with a 1 cm path length on 10 mg/L solutions. The term “petroleum hydrocarbons” refers to products having a predominantly hydrocarbon composition, although they may contain minor amounts of oxygen, nitrogen, sulfur or phosphorus; petroleum hydrocarbons are derived from petroleum refining processes; they include, for example, lubricating oil, hydraulic fluid, brake fluid, gasoline, diesel fuel, kerosene, jet fuel and heating oil. An “alkyl” group is a hydrocarbyl group having from one to twenty carbon atoms in a linear, branched or cyclic arrangement. Alkyl groups optionally have one or more double or triple bonds. Substitution on alkyl groups of one or more halo, hydroxy or alkoxy groups is permitted; alkoxy groups may in turn be substituted by one or more halo substituents. Preferably, alkyl groups have no halo or alkoxy substituents, and most preferably, alkyl groups are saturated and unsubstituted. A “heteroalkyl” group is an alkyl group in which at least one carbon has been replaced by O, NR, or S, wherein R is hydrogen, alkyl, aryl or aralkyl. An “aryl” group is a substituent derived from an aromatic hydrocarbon compound. An aryl group has a total of from six to twenty ring atoms, and has one or more rings which are separate or fused. An “aralkyl” group is an “alkyl” group substituted by an “aryl” group. A “heterocyclic” group is a substituent derived from a heterocyclic compound having from five to twenty ring atoms, at least one of which is nitrogen, oxygen or sulfur. […] Substitution on aryl or heterocyclic groups of one or more of the following groups: halo, cyano, nitro, hydroxy, alkoxy, alkyl, heteroalkyl, alkanoyl, amino, or amino substituted by one or more of alkyl, aryl, aralkyl, heterocyclic, heteroalkyl or alkanoyl is permitted, with substitution by one or more halo groups being possible on alkyl, heteroalkyl, alkanoyl or alkoxy groups. […] In one preferred embodiment of the invention, aryl and heterocyclic groups are unsubstituted or substituted only by alkyl groups. An “aromatic heterocyclic” group is a heterocyclic group derived from an aromatic heterocyclic compound.
The absorption maxima, λmax, of several substituted anthraquinone dyes of formula (I), measured in xylene, are provided in the following table. For all of the dyes listed, R^4 and R^6 are hydrogen.

Solubility in xylene = assay type: physicochemical; conditions: weight percentage
Method: A mixture of leuco-1,4,5,8-tetrahydroxyanthraquinone (5.91 g), sodium dithionite (1.09 g) and 1-hexanol (175.2 g) was stirred while adding 2-ethylhexylamine (24.08 g). The mixture was heated to reflux (148-152° C.), maintained at reflux for 6-6.5 hours, and then cooled to ambient temperature. The precipitate was collected and washed thoroughly with methanol and water, and dried. The yield of dried isolated product was 7.0 g. Approximately another 1.9 g was present in the mother liquor, for a total yield of 8.9 g (90%). This material has a maximum absorption band (λmax) at a wavelength of 692 nm in xylene, or 688 nm in cyclohexane, with an extinction value of 0.640 AU in xylene and 0.660 AU in cyclohexane for a 10 mg/L solution. The solubility of the title compound in xylene is approximately 20%.

| maximum absorption band (λmax) wavelength ([1]; in toluene) [nm] | maximum absorption band (λmax) wavelength ([1]; in xylene) [nm] | extinction value ([1]; in xylene) [AU] | SMILES | also measured |
| --- | --- | --- | --- | --- |
| 762 |  |  | CCCCc1ccc(Nc2ccc(Nc3ccc(CCCC)cc3)c3c2C(=O)c2c(Nc4ccc(CCCC)cc4)ccc(Nc4ccc(CCCC)cc4)c2C3=O)cc1 [Example 6, 1,4,5,8-tetra(4-n-butylphenylamino)anthraquinone] | molar extinction coefficient (ε) [1]: ~36,900 |
|  | 692 | 0.640 | CCCCC(CC)CNc1ccc(NCC(CC)CCCC)c2c1C(=O)c1c(O)ccc(O)c1C2=O (centres unmarked) [Example 1, 1,4-di-(2-ethylhexylamino)-5,8-dihydroxyanthraquinone] | solubility in xylene (Solubility in xylene): approximately 20%; maximum absorption band (λmax) wavelength ([1]; in cyclohexane): 688 nm; extinction value ([1]; in cyclohexane): 0.660 AU; λmax, nm ([1]; measured in xylene, dyes of formula (I), R^4 and R^6 hydrogen): 692 nm |
|  | 835 | 0.342 | CCCCc1ccc(Nc2ccc(Nc3ccc(CCCC)cc3)c3c2C(=O)c2c(Nc4ccc(CCCC)cc4)c(C#N)c(C#N)c(Nc4ccc(CCCC)cc4)c2C3=O)cc1 [1,4,5,8-tetra-(4′-n-butylphenylamino)-2,3-dicyanoanthraquinone] |  |
| 675 |  |  | CCCCc1ccc(Nc2cccc3c2C(=O)c2c(Nc4ccc(CCCC)cc4)ccc(Nc4ccc(CCCC)cc4)c2C3=O)cc1 [Example 4, 1,4,5-tri(4-n-butylphenylamino)anthraquinone] |  |
|  | 700 | 0.23 | CCCCNc1c(C#N)c(C#N)c(NCCCC)c2c1C(=O)c1ccccc1C2=O [Example 2, 1,4-di-(n-butylamino)-2,3-dicyanoanthraquinone] |  |
| 750 |  |  | O=C1c2c(Nc3ccccc3)ccc(Nc3ccccc3)c2C(=O)c2c(Nc3ccccc3)ccc(Nc3ccccc3)c21 [Example 5, 1,4,5,8-tetra(phenylamino)anthraquinone] | molar extinction coefficient (ε) [1]: ~30,500 |
|  | 900 | 0.19 | CCCCc1ccc(Nc2c(C#N)c(C#N)c(Nc3ccc(CCCC)cc3)c3c2C(=O)c2c(Nc4ccc(CCCC)cc4)c(C#N)c(C#N)c(Nc4ccc(CCCC)cc4)c2C3=O)cc1 [1,4,5,8-tetra(4′-n-butylphenylamino)-2,3,6,7-tetracyanoanthraquinone] |  |
